Here are results for 29 compounds from patent publication US9409884B2 (Rigel Pharmaceuticals, Inc., priority 2012, dated 2016).

A value given as a limit tells only on which side of the number the result lay.

For one test, the target named is AMPK. The test is described as follows: AMPK activation, enzyme-linked immunosorbent assay. Type of test: biochemical. The conditions noted are these: Table 8, compounds of Table 1. The gist of the method: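 Read-out: ELISA, used to detect compound-driven activation of AMPK.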
By EC50 is commonly meant the midpoint of the concentration-response curve. For the compound `O=C(NC1CCN(Cc2ccncc2)CC1)c1cccc(OC2CCN(c3ccc(C(F)(F)F)cc3)CC2)n1` [Compound 1-43, N-(1-(pyridin-4-ylmethyl)piperidin-4-yl)-6-(1-(4-(trifluoromethyl)phenyl)piperidin-4-yloxy)picolinamide], the EC50 is 1000 to 5000 nM.

`O=C(NC1CCN(Cc2ccncc2)CC1)c1cc2ccc(OC3CCN(c4ccc(C(F)(F)F)cc4)CC3)cc2o1` [Compound 1-87, N-(1-(pyridin-4-ylmethyl)piperidin-4-yl)-6-(1-(4-(trifluoromethyl)phenyl)piperidin-4-yloxy)benzofuran-2-carboxamide]: the EC50 is under 100 nM.

For the compound `CN(C)c1ccc(CN2CCC(NC(=O)c3ccc(OC4CCN(c5ccc(C(F)(F)F)cc5)CC4)cn3)CC2)cc1` [Compound 1-39, N-(1-(4-(dimethylamino)benzyl)piperidin-4-yl)-5-(1-(4-(trifluoromethyl)phenyl)piperidin-4-yloxy)picolinamide], the EC50 is 100 to 500 nM.

Turning to `O=C(NC1CCN(Cc2ccncc2)CC1)c1cc2cc(OC3CCN(Cc4ccc(Cl)cc4)CC3)ccc2o1` [Compound 1-77, 5-(1-(4-chlorobenzyl)piperidin-4-yloxy)-N-(1-(pyridin-4-ylmethyl)piperidin-4-yl)benzofuran-2-carboxamide], the EC50 was 100 to 500 nM.

The compound `O=C(N[C@@H]1CCN(Cc2ccc(F)cc2)C1)c1ccc(OC2CCN(c3ccc(C(F)(F)F)cc3)CC2)cn1` [Compound 1-34, (R)-N-(1-(4-fluorobenzyl)pyrrolidin-3-yl)-5-(1-(4-(trifluoromethyl)phenyl)piperidin-4-yloxy) picolinamide] gave an EC50 of 500 to 1000 nM.

In turn, `N#Cc1ccc(CN2CCC(NC(=O)c3cc4cc(O[C@@H]5CCN(Cc6cnn(-c7ccc(C#N)cc7)c6)C[C@H]5F)ccc4o3)CC2)cc1` [Compound 1-166, N-(1-(4-cyanobenzyl)piperidin-4-yl)-5-((3,4-trans)-1-((1-(4-cyanophenyl)-1H-pyrazol-4-yl)methyl)-3-fluoropiperidin-4-yloxy)benzofuran-2-carboxamide] yielded an EC50 of under 100 nM.

As for `N#Cc1ccccc1CN1CCC(NC(=O)c2cc3ccc(OC4CCN(c5ccc(OC(F)(F)F)cc5)CC4)cc3o2)CC1` [Compound 1-97, N-(1-(2-cyanobenzyl)piperidin-4-yl)-6-(1-(4-(trifluoromethoxy)phenyl)piperidin-4-yloxy)benzofuran-2-carboxamide], the EC50 is under 100 nM.

Compound `CC(C)(C)OC(=O)N1CCC(NC(=O)c2cc3ccc(OC4CCN(c5ccc(C(F)(F)F)cc5)CC4)cc3o2)CC1` [Compound 1-82, tert-butyl 4-(6-(1-(4-(trifluoromethyl)phenyl)piperidin-4-yloxy)benzofuran-2-carboxamido) piperidine-1-carboxylate] displayed an EC50 of 100 to 500 nM.

Staying with this test, now noted: Table 9, compounds of Table 2.
Compound `Cn1c2c(c3cc(C(=O)NC4CCN(Cc5ccc(C(F)(F)F)cc5)CC4)ccc31)CN(Cc1ccc(C(F)(F)F)cc1)CC2` [Compound 2-17, N-(1-(4-trifluoromethylbenzyl)piperidin-4-yl)-5-methyl-2-(4-(trifluoromethyl)benzyl)-2,3,4,5-tetrahydro-1H-pyrido[4,3-b]indole-8-carboxamide] showed an EC50 of 500 to 1000 nM.

With `CC(C)(C)OC(=O)N1CCC(NC(=O)c2ccc3[nH]c4c(c3c2)CN(Cc2ccc(C(F)(F)F)cc2)CC4)CC1` [Compound 2-6, tert-butyl 4-(2-(4-(trifluoromethyl)benzyl)-2,3,4,5-tetrahydro-1H-pyrido[4,3-b]indole-8-carboxamido)piperidine-1-carboxylate], the half-maximal effective concentration (EC50) was in the range of 500 to 1000 nM.

Turning to `O=C(NC1CCN(Cc2cccnc2)CC1)c1ccc2[nH]c3c(c2c1)CN(c1ccc(F)cc1)CC3` [Compound 2-36, 2-(4-fluorophenyl)-N-(1-(pyridin-3-ylmethyl)piperidin-4-yl)-2,3,4,5-tetrahydro-1H-pyrido[4,3-b]indole-8-carboxamide], the EC50 is over 100000 nM.

In the case of `NC(=O)c1ccc(CN2CCC(NC(=O)c3ccc4[nH]c5c(c4c3)CN(Cc3ccc(C(N)=O)cc3)CC5)CC2)cc1` [Compound 2-49, 2-(4-carbamoylbenzyl)-N-(1-(4-carbamoylbenzyl)piperidin-4-yl)-2,3,4,5-tetrahydro-1H-pyrido[4,3-b]indole-8-carboxamide], the concentration for a half-maximal effect (EC50) was over 100000 nM.

Still in this test, the particulars now being: Table 11, compounds of Table 4.
The compound `O=C(NC1CCN(Cc2ccc(Cl)cc2)C1)c1ccc(C(=O)N2CCN(c3ccc(Cl)cc3)CC2)cn1` (centres unmarked) [Compound 4-7, N-(1-(4-chlorobenzyl)pyrrolidin-3-yl)-5-(4-(4-chlorophenyl)piperazine-1-carbonyl)picolinamide] yielded an EC50 of 1000 to 5000 nM.

The test is the same for the next values; noted with them: Table 12, compounds of Table 5.
Take `O=C(NC1CCN(Cc2ccccc2)CC1)c1ccc(OC2CCN(Cc3ccc(OC(F)(F)F)cc3)CC2)c(F)c1` [Compound 5-57, N-(1-benzylpiperidin-4-yl)-3-fluoro-4-(1-(4-(trifluoromethoxy)benzyl)piperidin-4-yloxy)benzamide]: the EC50 is under 1000 nM.

In the case of `Cc1ccc(CN2CCC(Oc3ccc(C(=O)NCCCN4CCOCC4)cc3)CC2)cc1` [Compound 5-104, 4-(1-(4-methylbenzyl)piperidin-4-yloxy)-N-(3-morpholinopropyl)benzamide], the EC50 was 10000 to 20000 nM.

`Cn1cncc1CN1CCC(Oc2ccc(C(=O)NC3CCN(Cc4ccccc4)CC3)cc2Cl)CC1` [Compound 5-5, N-(1-benzylpiperidin-4-yl)-3-chloro-4-(1-((1-methyl-1H-imidazol-5-yl)methyl)piperidin-4-yloxy)benzamide] gave a half-maximal effective concentration (EC50) of 50000 to 100000 nM.

As to `CC(C)(C)C(=O)N1CCC(Oc2ccc(C(=O)NC3CCN(Cc4ccccc4)CC3)cc2Cl)CC1` [Compound 5-91, N-(1-benzylpiperidin-4-yl)-3-chloro-4-(1-pivaloylpiperidin-4-yloxy)benzamide], the EC50 is under 1000 nM.

`O=C(NC1CCN(c2ccccc2)CC1)c1ccc(OC2CCN(c3ccc(C(F)(F)F)cc3)CC2)c(F)c1` [Compound 5-25, 3-fluoro-N-(1-phenylpiperidin-4-yl)-4-(1-(4-(trifluoromethyl)phenyl)piperidin-4-yloxy)benzamide]: the EC50 is over 100000 nM.

Still in this test, the particulars now being: Table 13, compounds of Table 6.
For `N#Cc1ccc(CN2CCC(NC(=O)c3cc4cc(C(=O)N5CCN(Cc6ccc(N7CCCC7)cc6)CC5)ccc4o3)CC2)cc1` [Compound 6-80, N-(1-(4-cyanobenzyl)piperidin-4-yl)-5-(4-(4-(pyrrolidin-1-yl)benzyl)piperazine-1-carbonyl)benzofuran-2-carboxamide], the EC50 is under 100 nM.

Take `N#Cc1ccc(CN2CCC(NC(=O)c3cc4cc(C(=O)N5CCN(c6ccc(Cl)cc6Cl)CC5)ccc4o3)CC2)cc1` [Compound 6-118, N-(1-(4-cyanobenzyl)piperidin-4-yl)-5-(4-(2,4-dichlorophenyl)piperazine-1-carbonyl)benzofuran-2-carboxamide]: the EC50 is under 100 nM.

`CS(=O)(=O)c1ccc(CN2CCN(C(=O)c3ccc4oc(C(=O)NC5CCN(Cc6cccc(OC(F)(F)C(F)F)c6)CC5)cc4c3)CC2)cc1` [Compound 6-157, 5-(4-(4-(methylsulfonyl)benzyl)piperazine-1-carbonyl)-N-(1-(3-(1,1,2,2-tetrafluoroethoxy)benzyl)piperidin-4-yl)benzofuran-2-carboxamide] displayed an EC50 of under 100 nM.

`CS(=O)(=O)c1ccc(CN2CCN(C(=O)c3ccc4oc(C(=O)NC5CCN(Cc6cccc(OC(F)(F)F)c6)CC5)cc4c3)CC2)cc1` [Compound 6-146, 5-(4-(4-(methylsulfonyl)benzyl)piperazine-1-carbonyl)-N-(1-(3-(trifluoromethoxy)benzyl)piperidin-4-yl)benzofuran-2-carboxamide] had an EC50 of under 100 nM.

Compound `CS(=O)(=O)c1ccc(CN2CCN(C(=O)c3ccc4cc(C(=O)Nc5ccc(Oc6ccc(C#N)cc6)nc5)oc4c3)CC2)cc1` [Compound 6-8, N-(6-(4-cyanophenoxy)pyridin-3-yl)-6-(4-(4-(methylsulfonyl)benzyl)piperazine-1-carbonyl) benzofuran-2-carboxamide] gave an EC50 of under 100 nM.

Consider `COc1ccc(CN2CCC(NC(=O)c3cc4cc(C(=O)N5CCN(c6ccc(Cl)cc6Cl)CC5)ccc4o3)CC2)cc1` [Compound 6-121, 5-(4-(2,4-dichlorophcnyl)piperazine-1-carbonyl)-N-(1-(4-methoxybenzyl)piperidin-4-yl)benzofuran-2-carboxamide], for which the EC50 is under 100 nM.

The test is the same for the next values; noted with them: Table 14, compounds of Table 7.
Consider `CS(=O)(=O)c1ccc(OC2CCN(c3ccc(C(=O)NC4CCN(Cc5ccc(C#N)cc5)CC4)cn3)CC2)cc1` [Compound 7-80, N-(1-(4-cyanobenzyl)piperidin-4-yl)-6-(4-(4-(methylsulfonyl)phenoxy)piperidin-1-yl)nicotinamide], for which the EC50 was under 1000 nM.

Turning to `COc1ccc(C(=O)C2CCN(C(=O)c3ccc(C(=O)NC4CCN(Cc5ccc(C#N)c(OC)c5)CC4(C)C)cn3)CC2)cc1` (centres unmarked) [Compound 7-89, N-(1-(4-cyano-3-methoxybenzyl)-3,3-dimethylpiperidin-4-yl)-6-(4-(4-methoxybenzoyl)piperidine-1-carbonyl)nicotinamide], the EC50 lay in the range of 1000 to 10000 nM.

The compound `COc1ccc(C(=O)C2CCN(C(=O)c3ccc(C(=O)NC4CCN(Cc5ccc(OC)c(F)c5)C[C@H]4F)cn3)CC2)cc1` (stereo partly drawn) [Compound 7-44, N-((3,4-trans)-3-fluoro-1-(3-fluoro-4-methoxybenzyl)piperidin-4-yl)-6-(4-(4-methoxybenzoyl)piperidine-1-carbonyl)nicotinamide] yielded an EC50 of under 1000 nM.

Compound `COc1ccc(C(=O)C2CCN(C(=O)c3ccc(C(=O)Nc4ccc(Oc5ccc(S(F)(F)(F)(F)F)cc5)nc4)nc3)CC2)cc1` [Compound 7-3, 5-(4-(4-methoxybenzoyl)piperidine-1-carbonyl)-N-(6-(4-(pentafluorosulfanyl)phenoxy)pyridin-3-yl)picolinamide] displayed an EC50 of under 1000 nM.

As for `COc1ccc(C(=O)C2CCN(C(=O)c3ccc(C(=O)NC4CCN(Cc5ccc(OC)c(F)c5)CC4(C)C)cn3)CC2)cc1` (centres unmarked) [Compound 7-95, N-(1-(3-fluoro-4-methoxybenzyl)-3,3-dimethylpiperidin-4-yl)-6-(4-(4-methoxybenzoyl)piperidine-1-carbonyl)nicotinamide], the EC50 was under 1000 nM.
